According to patent US20170209445A1, “KINASE INHIBITORS” (Respivert Limited, priority 2014, published 2017):

Test system: PBMCs
Test: LPS-induced IL-8 release in PBMC cells
Format: cell-based
Settings: Homo sapiens, LPS-stimulated PBMCs, read-out: IC50 Values for Inhibition of Cytokine Release PBMCs IL-8
Method: Peripheral blood mononuclear cells (PBMCs) from healthy subjects are separated from whole blood using a density gradient (Lymphoprep, Axis-Shield Healthcare). The PBMCs are seeded in 96 well plates and treated with compounds at the desired concentration for 2 hours before addition of 1 ng/mL LPS (Escherichia Coli 0111:B4 from Sigma Aldrich) for 24 hours under normal tissue culture conditions (37° C., 5% CO2). The supernatant is harvested for determination of IL-8 and TNFα concentrations by sandwich ELISA (Duo-set, R&D systems) and read on the fluorescence microplate reader (Varioskan® Flash, ThermoFisher Scientific).

SMILES | IC50 [nM]
COc1c(NC(=O)c2ccc(C)c(-c3ccc4nc(Nc5cccc(OS(C)(=O)=O)c5)ncc4c3)c2)cc(C(C)(C)C)cc1NS(C)(=O)=O [14(a), 3-((6-(5-((5-(tert-Butyl)-2-methoxy-3-(methylsulfonamido)phenyl)carbamoyl)-2-methylphenyl)quinazolin-2-yl)amino)phenyl methanesulfonate] | 31.1
COc1cc(Nc2ncc3cc(-c4cc(C(=O)Nc5cc(C(C)(C)C)cc(NS(C)(=O)=O)c5OC)ccc4C)ccc3n2)ccc1C(=O)NCCC1CCN(C)CC1 [14(aa), 4-((6-(5-((5-(tert-Butyl)-2-methoxy-3-(methylsulfonamido)phenyl)carbamoyl)-2-methyl-phenyl)quinazolin-2-yl)amino)-2-methoxy-N-(2-(1-methylpiperidin-4-yl)ethyl)benzamide] | 9.5
COc1cc(Nc2ncc3cc(-c4cc(C(=O)Nc5cc(C(C)(C)C)cc(NS(C)(=O)=O)c5OC)ccc4C)ccc3n2)ccc1C(=O)NCCCN1CCCOCC1 [14(ab), N-(3-(1,4-Oxazepan-4-yl)propyl)-4-((6-(5-((5-(tert-butyl)-2-methoxy-3-(methyl-sulfonamido)phenyl)carbamoyl)-2-methylphenyl)quinazolin-2-yl)amino)-2-methoxybenzamide] | 5.4
COc1cc(Nc2ncc3cc(-c4cc(C(=O)Nc5cc(C(C)(C)C)cc(NS(C)(=O)=O)c5OC)ccc4C)ccc3n2)ccc1C(=O)NC1CCN(C)CC1 [14(ac), 4-((6-(5-((5-(tert-Butyl)-2-methoxy-3-(methylsulfonamido)phenyl)carbamoyl)-2-methylphenyl)quinazolin-2-yl)amino)-2-methoxy-N-(1-methylpiperidin-4-yl)benzamide] | 5.1
COc1cc(Nc2ncc3cc(-c4cc(C(=O)Nc5cc(C(C)(C)C)cc(NS(C)(=O)=O)c5OC)ccc4C)ccc3n2)ccc1C(=O)NCCS(C)(=O)=O [14(ad), 4-((6-(5-((5-(tert-Butyl)-2-methoxy-3-(methylsulfonamido)phenyl)carbamoyl)-2-methylphenyl)quinazolin-2-yl)amino)-2-methoxy-N-(2-(methylsulfonyl)ethyl)benzamide] | 7
COc1cc(Nc2ncc3cc(-c4cc(C(=O)Nc5cc(C(C)(C)C)cc(NS(C)(=O)=O)c5OC)ccc4C)ccc3n2)ccc1C(=O)NCCn1ccnc1C [14(ae), 4-((6-(5-((5-(tert-Butyl)-2-methoxy-3-(methylsulfonamido)phenyl)carbamoyl)-2-methyl-phenyl)quinazolin-2-yl)amino)-2-methoxy-N-(2-(2-methyl-1H-imidazol-1-yl)ethyl)benzamide] | 6.5
COc1cc(Nc2ncc3cc(-c4cc(C(=O)Nc5cc(C(C)(C)C)cc(NS(C)(=O)=O)c5OC)ccc4C)ccc3n2)ccc1C(=O)NCCc1c[nH]cn1 [14(af), N-(2-(1H-Imidazol-4-yl)ethyl)-4-((6-(5-((5-(tert-butyl)-2-methoxy-3-(methylsulfonamido)-phenyl)carbamoyl)-2-methylphenyl)quinazolin-2-yl)amino)-2-methoxybenzamide] | 13.2
COc1cc(Nc2ncc3cc(-c4cc(C(=O)Nc5cc(C(C)(C)C)cc(NS(C)(=O)=O)c5OC)ccc4C)ccc3n2)ccc1C(=O)NCCc1cccnc1 [14(ag), 4-((6-(5-((5-(tert-Butyl)-2-methoxy-3-(methylsulfonamido)phenyl)carbamoyl)-2-methylphenyl)quinazolin-2-yl)amino)-2-methoxy-N-(2-(pyridin-3-yl)ethyl)benzamide] | 11.6
COc1cc(Nc2ncc3cc(-c4cc(C(=O)Nc5cc(C(C)(C)C)cc(NS(C)(=O)=O)c5OC)ccc4C)ccc3n2)ccc1C(=O)NCCN1CCC(O)CC1 [14(ah), 4-((6-(5-((5-(tert-Butyl)-2-methoxy-3-(methylsulfonamido)phenyl)carbamoyl)-2-methylphenyl)quinazolin-2-yl)amino)-N-(2-(4-hydroxypiperidin-1-yl)ethyl)-2-methoxybenzamide] | 8
COc1cc(Nc2ncc3cc(-c4cc(C(=O)Nc5cc(C(C)(C)C)cc(NS(C)(=O)=O)c5OC)ccc4C)ccc3n2)ccc1C(=O)NCC1CCN(C)CC1 [14(ai), 4-((6-(5-((5-(tert-Butyl)-2-methoxy-3-(methylsulfonamido)phenyl)carbamoyl)-2-methylphenyl)quinazolin-2-yl)amino)-2-methoxy-N-((1-methylpiperidin-4-yl)methyl)benzamide] | 7.9
COc1cc(Nc2ncc3cc(-c4cc(C(=O)Nc5cc(C(C)(C)C)cc(NS(C)(=O)=O)c5OC)ccc4C)ccc3n2)ccc1C(=O)NCCC1(O)CCN(C)CC1 [14(aj), 4-((6-(5-((5-(tert-Butyl)-2-methoxy-3-(methylsulfonamido)phenyl)carbamoyl)-2-methylphenyl)quinazolin-2-yl)amino)-N-(2-(4-hydroxy-1-methylpiperidin-4-yl)ethyl)-2-methoxybenzamide] | 9.3
COc1cc(Nc2ncc3cc(-c4cc(C(=O)Nc5cc(C(C)(C)C)cc(NS(C)(=O)=O)c5OC)ccc4C)ccc3n2)ccc1C(=O)NCCN1CCCC1 [14(ak), 4-((6-(5-((5-(tert-Butyl)-2-methoxy-3-(methylsulfonamido)phenyl)carbamoyl)-2-methylphenyl)quinazolin-2-yl)amino)-2-methoxy-N-(2-(pyrrolidin-1-yl)ethyl)benzamide] | 14.8
COc1cc(Nc2ncc3cc(-c4cc(C(=O)Nc5cc(C(C)(C)C)cc(NS(C)(=O)=O)c5OC)ccc4C)ccc3n2)ccc1C(=O)NCCN1CCN(C)C(C)(C)C1 [14(al), 4-((6-(5-((5-(tert-Butyl)-2-methoxy-3-(methylsulfonamido)phenyl)carbamoyl)-2-methyl-phenyl)quinazolin-2-yl)amino)-2-methoxy-N-(2-(3,3,4-trimethylpiperazin-1-yl)ethyl)benzamide] | 8.3
COc1cc(Nc2ncc3cc(-c4cc(C(=O)Nc5cc(C(C)(C)C)cc(NS(C)(=O)=O)c5OC)ccc4C)ccc3n2)ccc1C(=O)NCCN1CCOCC1 [14(am), 4-((6-(5-((5-(tert-Butyl)-2-methoxy-3-(methylsulfonamido)phenyl)carbamoyl)-2-methylphenyl)quinazolin-2-yl)amino)-2-methoxy-N-(2-morpholinoethyl)benzamide] | 19.5
COc1cc(Nc2ncc3cc(-c4cc(C(=O)Nc5cc(C(C)(C)C)cc(NS(C)(=O)=O)c5OC)ccc4C)ccc3n2)ccc1C(=O)NC1CCS(=O)(=O)CC1 [14(an), 4-((6-(5-((5-(tert-Butyl)-2-methoxy-3-(methylsulfonamido)phenyl)carbamoyl)-2-methylphenyl)quinazolin-2-yl)amino)-N-(1,1-dioxidotetrahydro-2H-thiopyran-4-yl)-2-methoxybenzamide] | 12.3
COc1c(NC(=O)c2ccc(C)c(-c3ccc4nc(Nc5cc(C#N)cc(OCCN6CCOCC6)c5)ncc4c3)c2)cc(C(C)(C)C)cc1NS(C)(=O)=O [14(b), N-(5-(tert-Butyl)-2-methoxy-3-(methylsulfonamido)phenyl)-3-(2-((3-cyano-5-(2-morpholinoethoxy)phenyl)amino)quinazolin-6-yl)-4-methylbenzamide] | 15.2
COc1cc(Nc2ncc3cc(-c4cc(C(=O)Nc5cc(C(C)(C)C)cc(NS(C)(=O)=O)c5OC)ccc4C)ccc3n2)cc(S(=O)(=O)N(C)CCN2CCOCC2)c1 [14(c), N-(5-(tert-Butyl)-2-methoxy-3-(methylsulfonamido)phenyl)-3-(2-((3-methoxy-5-(N-methyl-N-(2-morpholinoethyl)sulfamoyl)phenyl)amino)quinazolin-6-yl)-4-methylbenzamide] | 18.6
COc1c(NC(=O)c2ccc(C)c(-c3ccc4nc(Nc5cccc(C(=O)NCCN6CCOCC6)c5)ncc4c3)c2)cc(C(C)(C)C)cc1NS(C)(=O)=O [14(d), N-(5-(tert-Butyl)-2-methoxy-3-(methylsulfonamido)phenyl)-4-methyl-3-(2-((3-((2-morpholinoethyl)carbamoyl)phenyl)amino)quinazolin-6-yl)benzamide] | 8.3
COc1cc(Nc2ncc3cc(-c4cc(C(=O)Nc5cc(C(C)(C)C)cc(NS(C)(=O)=O)c5OC)ccc4C)ccc3n2)cc(S(=O)(=O)N(C)CCCN2CCOCC2)c1 [14(e), N-(5-(tert-Butyl)-2-methoxy-3-(methylsulfonamido)phenyl)-3-(2-((3-methoxy-5-(N-methyl-N-(3-morpholinopropyl)sulfamoyl)phenyl)amino)quinazolin-6-yl)-4-methylbenzamide] | 20.6
COCCOCCOCCOc1cc(C#N)cc(Nc2ncc3cc(-c4cc(C(=O)Nc5cc(C(C)(C)C)cc(NS(C)(=O)=O)c5OC)ccc4C)ccc3n2)c1 [14(f), N-(5-(tert-Butyl)-2-methoxy-3-(methylsulfonamido)phenyl)-3-(2-((3-cyano-5-(2-(2-(2-methoxyethoxy)ethoxy)ethoxy)phenyl)amino)quinazolin-6-yl)-4-methylbenzamide] | 10.4
COc1c(NC(=O)c2ccc(C)c(-c3ccc4nc(Nc5cccc(P(C)(C)=O)c5)ncc4c3)c2)cc(C(C)(C)C)cc1NS(C)(=O)=O [14(h), N-(5-(tert-Butyl)-2-methoxy-3-(methylsulfonamido)phenyl)-3-(2-((3-(dimethylphosphoryl)phenyl)amino)quinazolin-6-yl)-4-methylbenzamide] | 9.4
COc1c(NC(=O)c2ccc(C)c(-c3ccc4nc(Nc5ccc(OS(C)(=O)=O)cc5)ncc4c3)c2)cc(C(C)(C)C)cc1NS(C)(=O)=O [14(j), 4-((6-(5-((5-(tert-Butyl)-2-methoxy-3-(methylsulfonamido)phenyl)carbamoyl)-2-methylphenyl)quinazolin-2-yl)amino)phenyl methanesulfonate] | 9.1
C#Cc1cc(Nc2ncc3cc(-c4cc(C(=O)Nc5cc(C(C)(C)C)cc(NS(C)(=O)=O)c5OC)ccc4C)ccc3n2)cc(OCCOCCOCCOC)c1 [14(k), N-(5-(tert-Butyl)-2-methoxy-3-(methylsulfonamido)phenyl)-3-(2-((3-ethynyl-5-(2-(2-(2-methoxyethoxy)ethoxy)ethoxy)phenyl)amino)quinazolin-6-yl)-4-methylbenzamide] | 16.7
